Structures can show the parent of a compound that is named as a salt.

The nature of the data set: collision cross section in nitrogen (drift tube, single-field); higher = larger gas-phase ion size.
Setting [1] is: ion type: [M+H], ion source: APCI, ion mode: Positive.
Where [2] appears, read: ion type: [M+H], ion source: ESI, ion mode: Positive.
The mark [3] stands for this setting: ion type: [M+Na], ion source: ESI, ion mode: Positive.
[4] abbreviates: ion type: [M-H], ion source: ESI, ion mode: Negative.
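Note: chemical standards at 10 µM analysed by drift tube IMS-QTOF MS in about 3.95 torr nitrogen, mean of duplicate injections differing ≤1%, mass error below 10 ppm.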

For `CCOC(=O)CP(=O)(OCC)OCC` [Triethyl phosphonoacetate], the “collision cross section in nitrogen” value runs as follows: under setting [1], 143.6 Å²; under setting [2], 143.7 Å²; under setting [3], 155 Å².

For the compound `CCCCC(CC)C(=O)OCCOCCOCCOC(=O)C(CC)CCCC` (stereo not given) [Triethylene glycol bis(2-ethylhexanoate)], the “collision cross section in nitrogen” value under setting [3] was found to be 207.3 Å².

In the case of `CC(=O)OCCOCCOCCOC(C)=O` [Triethylene glycol diacetate], the “collision cross section in nitrogen” value under setting [3] is 151.3 Å².

With `COCCOCCOCCOC` [Triethylene glycol dimethyl ether], the “collision cross section in nitrogen” value under setting [3] is given as 138.1 Å².

On to `OCCOCCOCCO` [Triethylene glycol], for which the “collision cross section in nitrogen” value under setting [3] is 131.5 Å².

In the case of `CO/N=C(/C(=O)OC)c1ccccc1CO/N=C(\C)c1cccc(C(F)(F)F)c1` [Trifloxystrobin], the “collision cross section in nitrogen” value by setting is: under setting [1], 187.4 Å²; under setting [2], 187.2 Å²; under setting [3], 193 Å².

Consider `COc1cc(OC)nc(NC(=O)NS(=O)(=O)c2ncccc2OCC(F)(F)F)n1` [Trifloxysulfuron-sodium], for which the “collision cross section in nitrogen” value runs as follows: under setting [2], 192 Å²; under setting [3], 194.5 Å²; under setting [4], 190.2 Å².

For `CCCOC/C(=N\c1ccc(Cl)cc1C(F)(F)F)n1ccnc1` [Triflumizole], the “collision cross section in nitrogen” value by setting is: under setting [1], 179.8 Å²; under setting [2], 180 Å²; under setting [4], 170.3 Å².

Turning to `O=C(NC(=O)c1ccccc1Cl)Nc1ccc(OC(F)(F)F)cc1` [Triflumuron], the “collision cross section in nitrogen” value was determined as 186.6 Å² under setting [3] and 179.1 Å² under setting [4].

Turning to `O=S(=O)(O)C(F)(F)F` [Trifluoromethanesulfonic acid], the “collision cross section in nitrogen” value under setting [4] is 110.8 Å².

Regarding `CCCN(CCC)c1c([N+](=O)[O-])cc(C(F)(F)F)cc1[N+](=O)[O-]` [Trifluralin], under setting [4], the “collision cross section in nitrogen” value worked out at 169.2 Å².

In the case of `CC(C)COP(=O)(OCC(C)C)OCC(C)C` [Triisobutyl phosphate], under setting [3], the “collision cross section in nitrogen” value stood at 183.6 Å².

Regarding `CC(O)CN(CC(C)O)CC(C)O` (stereo not given) [Triisopropanolamine], the “collision cross section in nitrogen” value came out at 141.3 Å² under setting [1], 141.5 Å² under setting [2] and 143.9 Å² under setting [3].

For the compound `C[C@]12CC[C@H]3[C@@H](CC[C@@]45O[C@@H]4C(O)=C(C#N)C[C@]35C)[C@@H]1CC[C@@H]2O` [Trilostane], the “collision cross section in nitrogen” value under setting [4] is reported as 186.2 Å².

Consider `O=C(O)c1ccc2c(c1)C(=O)OC2=O` [Trimellitic anhydride], for which the “collision cross section in nitrogen” value under setting [4] stood at 146.5 Å².

With `CC(CCCCN)C(C)(C)N` (stereo not given) [Trimethylhexane-1,6-diamine], the “collision cross section in nitrogen” value under setting [2] came out at 140.4 Å².

As to `C=CC(=O)OCC(CC)(COC(=O)C=C)COC(=O)C=C` [Trimethylolpropane triacrylate], the “collision cross section in nitrogen” value under setting [3] was 165.9 Å².

`CCOC(=O)C1CC(=O)C(=C(O)C2CC2)C(=O)C1` (stereo not given) [Trinexapac-ethyl]: the “collision cross section in nitrogen” value under setting [3] turned out to be 167.5 Å².

Take `C(=C(c1ccccc1)c1ccccc1)c1ccccc1` [Triphenylethylene]: the “collision cross section in nitrogen” value under setting [2] is on record as 153.5 Å².

Consider `O=P(c1ccccc1)(c1ccccc1)c1ccccc1` [Triphenylphosphine oxide], for which the “collision cross section in nitrogen” value runs as follows: under setting [1], 163 Å²; under setting [2], 162.9 Å²; under setting [3], 182.6 Å².

`O[Si](c1ccccc1)(c1ccccc1)c1ccccc1` [Triphenylsilanol]: the “collision cross section in nitrogen” value under setting [4] came to 171 Å².

With `CCC(=O)OCC(COC(=O)CC)OC(=O)CC` [Tripropionin], the “collision cross section in nitrogen” value under setting [3] is listed as 161.2 Å².

Turning to `CCCOP(=O)(OCCC)OCCC` [Tripropyl phosphate], the “collision cross section in nitrogen” value under setting [3] is 168.5 Å².

With `C=CC(=O)OCC(C)OCC(C)OCC(C)OC(=O)C=C` (stereo not given) [Tripropylene glycol diacrylate], under setting [3], the “collision cross section in nitrogen” value is listed as 169.9 Å².

For the compound `COCC(C)OCC(C)OCC(C)O` (stereo not given) [Tripropylene glycol monomethyl ether], the “collision cross section in nitrogen” value under setting [3] was determined as 148.8 Å².

As to `CC(O)COC(C)COC(C)CO` (stereo not given) [Tripropylene glycol], the “collision cross section in nitrogen” value under setting [3] was 144.9 Å².

`O=c1n(CC2CO2)c(=O)n(CC2CO2)c(=O)n1CC1CO1` (stereo not given) [Tris(2,3-epoxypropyl)isocyanurate]: the “collision cross section in nitrogen” value is, setting by setting: under setting [1], 158.6 Å²; under setting [2], 160.1 Å²; under setting [3], 163.2 Å².

With `O=P(OCCCl)(OCCCl)OCCCl` [Tris(2-chloroethyl) phosphate], the “collision cross section in nitrogen” value under setting [3] came to 160.2 Å².

For `CC(CCl)OP(=O)(OC(C)CCl)OC(C)CCl` (stereo not given) [Tris(2-chloroisopropyl)phosphate], under setting [3], the “collision cross section in nitrogen” value is 171.9 Å².

For the compound `CC(Cl)COP(=O)(OCC(C)Cl)OCC(C)Cl` (stereo not given) [Tris(2-chloropropyl) phosphate], under setting [3], the “collision cross section in nitrogen” value is 171.4 Å².

For `CCCCC(CC)COP(=O)(OCC(CC)CCCC)OCC(CC)CCCC` (stereo not given) [Tris(2-ethylhexyl) phosphate], the “collision cross section in nitrogen” value under setting [3] amounted to 231.9 Å².

Consider `CCCCC(CC)COC(=O)c1ccc(C(=O)OCC(CC)CCCC)c(C(=O)OCC(CC)CCCC)c1` (stereo not given) [Tris(2-ethylhexyl) trimellitate], for which the “collision cross section in nitrogen” value runs as follows: under setting [2], 256.5 Å²; under setting [3], 264.6 Å².

On to `O=c1n(CCO)c(=O)n(CCO)c(=O)n1CCO` [Tris(2-hydroxyethyl) isocyanurate], for which the “collision cross section in nitrogen” value under setting [3] is given as 159.3 Å².

With `Cc1ccc(OP(=O)(Oc2ccc(C)cc2)Oc2ccc(C)cc2)cc1` [Tris(4-methylphenyl) phosphate], the “collision cross section in nitrogen” value by setting is: under setting [1], 191 Å²; under setting [2], 190.1 Å²; under setting [3], 200.1 Å².

Turning to `S=c1[nH]c(=S)[nH]c(=S)[nH]1` [Trisodium 2,4,6-trithioxo-1,3,5-triazinane-1,3,5-triide], the “collision cross section in nitrogen” value under setting [4] is listed as 125.6 Å².

`CC1(C)CCC(=Cc2ccc(Cl)cc2)C1(O)Cn1cncn1` (stereo not given) [Triticonazole]: the “collision cross section in nitrogen” value by setting is: under setting [1], 181.7 Å²; under setting [2], 180.6 Å²; under setting [3], 189 Å².

`ClC(c1ccccc1)(c1ccccc1)c1ccccc1` [Trityl chloride]: under setting [1], the “collision cross section in nitrogen” value is on record as 162.5 Å².

As for `Cc1ccc(OP(=O)(Oc2ccc(C)cc2C)Oc2ccc(C)cc2C)c(C)c1` [Trixylyl phosphate], the “collision cross section in nitrogen” value is on record as 204.2 Å² under setting [1], 203.1 Å² under setting [2] and 212.6 Å² under setting [3].

Turning to `Cc1c(C)c2c(c(C)c1O)CCC(C)(COc1ccc(CC3SC(=O)NC3=O)cc1)O2` (stereo not given) [Troglitazone], the “collision cross section in nitrogen” value under setting [4] is 193.9 Å².

For the compound `O=c1ccc2ccc(O)cc2o1` [Umbelliferone], the “collision cross section in nitrogen” value under setting [4] came out at 127.4 Å².

On to `O=C(O)CCCCCCCCCC(=O)O` [Undecanedioic acid], for which the “collision cross section in nitrogen” value under setting [4] is on record as 149 Å².

For `O=c1[nH]c(=O)c2[nH]c(=O)[nH]c2[nH]1` [Uric acid], under setting [4], the “collision cross section in nitrogen” value is 126.4 Å².

Consider `CC(=O)c1c(O)c(C)c(O)c2c1OC1=CC(=O)C(C(C)=O)C(=O)C12C` (stereo not given) [Usnic acid], for which the “collision cross section in nitrogen” value under setting [4] is 177.1 Å².

For the compound `CCCC(CCC)C(=O)O` [Valproic acid], under setting [4], the “collision cross section in nitrogen” value is given as 137.1 Å².

`Clc1ccc(Nc2nnc(Cc3ccncc3)c3ccccc23)cc1` [Vatalanib dihydrochloride]: the “collision cross section in nitrogen” value reads like this: under setting [1], 188 Å²; under setting [2], 187.6 Å²; under setting [3], 191.4 Å²; under setting [4], 188.9 Å².

On to `COc1ccc(C(CN(C)C)C2(O)CCCCC2)cc1` (stereo not given) [Venlafaxine hydrochloride], for which the “collision cross section in nitrogen” value runs as follows: under setting [1], 170.8 Å²; under setting [2], 170.7 Å²; under setting [3], 177.7 Å².

As for `CC[C@]12CCCN3CCc4c(n(c5ccccc45)[C@@](O)(C(=O)OC)C1)[C@@H]32` [Vincamine], the “collision cross section in nitrogen” value reads like this: under setting [1], 182.5 Å²; under setting [2], 183.2 Å².

Take `C=CC1(C)OC(=O)N(c2cc(Cl)cc(Cl)c2)C1=O` (stereo not given) [Vinclozolin]: under setting [4], the “collision cross section in nitrogen” value was 154.4 Å².

Consider `COc1cccc([C@H](O)C2CCN(CCc3ccc(F)cc3)CC2)c1OC` [Volinanserin], for which the “collision cross section in nitrogen” value is, setting by setting: under setting [1], 185 Å²; under setting [2], 185 Å²; under setting [3], 188 Å².

Regarding `CC(=O)CC(c1ccccc1)c1c(O)c2ccccc2oc1=O` (stereo not given) [Warfarin], the “collision cross section in nitrogen” value is on record as 167.4 Å² under setting [1], 166.9 Å² under setting [2], 179.1 Å² under setting [3] and 172.2 Å² under setting [4].

`CN(CCO)CC(O)Cn1cnc2c1c(=O)n(C)c(=O)n2C` (stereo not given) [Xanthinol niacinate]: the “collision cross section in nitrogen” value reads like this: under setting [1], 171.8 Å²; under setting [2], 171.7 Å²; under setting [3], 175.7 Å².

In the case of `O=c1c2ccccc2oc2ccccc12` [Xanthone], the “collision cross section in nitrogen” value under setting [1] is on record as 135.2 Å².

For the compound `CCOC(=O)CN[C@@H](C(=O)N1CC[C@H]1C(=O)NCc1ccc(/C(N)=N/O)cc1)C1CCCCC1` [Ximelagatran], the “collision cross section in nitrogen” value under setting [1] came out at 208.6 Å², the “collision cross section in nitrogen” value under setting [2] worked out at 208.6 Å², the “collision cross section in nitrogen” value under setting [3] amounted to 213 Å² and the “collision cross section in nitrogen” value under setting [4] came to 216.1 Å².

For the compound `Cc1occc1C(=O)Nc1ccc(C(=O)N2CCC(F)(F)/C(=C\C(=O)N3CCC(N4CCCCC4)CC3)c3ccccc32)cc1` [YM 218], the “collision cross section in nitrogen” value is 240.1 Å² under setting [1], 239 Å² under setting [2] and 262.5 Å² under setting [3].

For the compound `COP(=O)(OC)O/C(=C\Cl)c1cc(Cl)c(Cl)cc1Cl` [Z-Tetrachlorvinphos], under setting [3], the “collision cross section in nitrogen” value is 177.9 Å².

The values above are taken from the supplement of paper PMC12317010.
